Experimental data: patent publication US20240329050A1, “METHODS OF DETECTING PENTASACCHARIDES AND TREATMENT AND MONITORING OF LYSOSOMAL STORAGE DISEASE” (Washington University, priority 2021, published 2024)
Values joined by “and” are separate entries in the source; they are usually repeats but may differ in a detail not shown here. Identical values can stand only once.

Assay: Validation of stability of H3N2b in urine, plasma, CSF, stock solution and standard curve matrix
Format: physicochemical, human
Protocol: Validation of stability-The long-term storage, freeze/thaw stabilities, and stabilities on the bench-top and in the autosampler were determined at the LQC and HQC concentration levels (n=3). Long-term storage stabilities of […]-80° C. in urine, plasma, CSF were tested. Bench-top stabilities of […] were evaluated in urine at room temperature, in plasma at room temperature, in CSF at room temperature and 4° C. Freeze/thaw stability in urine, plasma, CSF was tested by freezing the samples at -80° C. overnight, followed by thawing to room temperature the next day. This process was repeated three times. […] Stock solution stability was established by quantification of samples from dilution of two stock solutions that were stored at -20° C. and at room temperature on the bench, respectively, to the final solution (10000 ng/mL in water). The stabilities of […] in the matrix of standard curve for urine, plasma, CSF were test after storage at room temperature and at -80° C. […] standard curve was established each time.

- Stable after freeze/thaw cycles (CSF): 3 freeze/thaw cycles
- Stable for (CSF at 4° C.): 1 days
- Stable for (CSF at −80° C.): 125 days
- Stable for (CSF, room temperature): 0.083 days
- Stable for (matrix of standard curve for urine, plasma, CSF, room temperature): 1 days
- Stable after freeze/thaw cycles (plasma): 3 freeze/thaw cycles
- Stable for (plasma at −80° C.): 158 days
- Stable for (plasma, room temperature): 1 days
- Stable for (processed CSF samples at 4° C.): 3 days
- Stable for (processed plasma samples at 4° C.): 3 days
- Stable for (processed urine samples at 4° C.): 3 days
- Stable for (standard curve samples for CSF at −80° C.): 125 days
- Stable for (standard curve samples for plasma at −80° C.): 158 days
- Stable for (standard curve samples for urine at −80° C.): 194 days
- Stable for (stock solution at −20° C.): 232 days and 231 days
- Stable for (stock solution, room temperature): 1 days
- Stable after freeze/thaw cycles (urine): 3 freeze/thaw cycles
- Stable for (urine at −80° C.): 194 days
- Stable for (urine, room temperature): 1 days
Structure (SMILES): CC(=O)N[C@H]1[C@H](O[C@@H]2[C@@H](O[C@@H]3[C@H](O)[C@H](O[C@H]4[C@H](O)[C@@H](NC(C)=O)C(O)O[C@@H]4CO)O[C@H](CO)[C@H]3O)O[C@H](CO)[C@@H](O)[C@@H]2O)O[C@H](CO)[C@@H](O[C@@H]2O[C@H](CO)[C@H](O)[C@H](O)[C@H]2O)[C@@H]1O (stereo partly drawn) [H3N2b, O-β-D-galactopyranosyl-(1→4)-O-(2-acetamido-2-deoxy-β-D-glucopyranosyl)-(1→2)-O-α-D-mannopyranosyl-(1→3)-O-β-D-mannopyranosyl-(1→4)-2-acetamido-2-deoxy-α,β-D-glucopyranose]
